# Results: patent US6767911B2, “Fungicidal active compound combinations” (priority 1994, dated 2004)
# Legend:
# Drechslera graminea = Drechslera graminea test (barley)/seed treatment (syn. Helminthosporium gramineum); format: in vivo; conditions: approx. 3 weeks after sowing
# Experimental: Drechslera graminea Test (Barley)/Seed Treatment (syn. Helminthosporium gramineum)
# (§1) The active compounds are used as a powder for dry seed treatment. They are prepared by extending the active compound in question with rock meal to give a finely pulverulent mixture which guarantees uniform distribution on the seed surface.
# (§2) To carry out the seed treatment, the infected seed and the seed-dressing product are shaken for 3 minutes in a sealed glass flask.
# The seed, embedded in screened, moist standard soil in sealed Petri dishes, is exposed to a temperature of 4° C. for 10 days in a refrigerator. This triggers germination of the barley and, if appropriate, of the fungal spores. 2×50 pregerminated barley kernels are subsequently sown in standard soil at a depth of 3 cm and grown in a greenhouse at a temperature of approximately 18° in seed boxes which are exposed to the light for 15 hours per day.
# Approximately 3 weeks after sowing, the plants are evaluated for symptoms of barley leaf stripe.
# Botrytis cinerea = assay: Botrytis test (beans)/protective; format: in vivo; conditions: protective, 3 days after inoculation
# Experimental: Botrytis Test (Beans)/Protective
# To produce a suitable preparation of active compound, either commercially available formulations of active compound (individual active compound or active compound combinations) or one part by weight of active compound is mixed with 4.7 parts by weight of solvent (acetone) and 0.3 parts by weight of emulsifier (alkyl-aryl polyglycol ether), and the mixture is diluted with water to the desired concentration.
# To test for protective activity, young plants are sprayed with the preparation of active compound until dripping wet. After the spray coating has dried on, 2 small pieces of agar covered with Botrytis cinerea are placed on each leaf. The inoculated plants are placed in a darkened humid chamber at 20° C. 3 days after the inoculation, the size of the infected spots on the leaves is evaluated.
# Active compounds, active compound concentrations and test results can be seen from the tables which follow.
# [1] = test system: Erysiphe graminis f.sp. tritici; assay: Erysiphe test (wheat)/protective; format: in vivo; conditions: protective, 125 g/ha, 7 days after inoculation
# Experimental: Erysiphe Test (Wheat)/Protective
# (§3) To produce a suitable preparation of active compound, commercially available formulations of active compound are diluted with water to the desired concentration.
# (§4) To test for protective activity, young plants are sprayed with the preparation of active compound at the application rate shown.
# After the spray coating has dried on, the plants are dusted with spores of Erysiphe graminis f.sp. tritici.
# (§5) The plants are placed in a greenhouse at a temperature of about 20° C. and a relative atmospheric humidity of about 80%, in order to promote the development of mildew pustules.
# Evaluation is carried out 7 days' after the inoculation.
# Fusarium nivale = Fusarium nivale test (wheat)/seed treatment; format: in vivo; conditions: approx. 3 weeks after sowing
# Experimental: Fusarium nivale Test (Wheat)/Seed Treatment
# as §1, §2
# 2×100 wheat kernels are sown in standard soil at a depth of 1 cm and grown in the greenhouse at a temperature of approximately 10° C. and a relative atmospheric humidity of approximately 95% in seed boxes which are exposed to the light for 15 hours per day.
# Approximately 3 weeks after sowing, the plants are evaluated for snow blight symptoms.
# [2] = test system: Erysiphe graminis f.sp. hordei; assay: Erysiphe test (barley)/curative; format: in vivo; conditions: curative, 7 days after inoculation
# Experimental: Erysiphe Test (Barley)/Curative
# as §3
# To test for curative activity, young plants are dusted with spores of Erysiphe graminis f.sp. hordei. 48 hours after the inoculation, the plants are sprayed with the preparation of active compound at the application rate shown.
# as §5
# (§6) Evaluation is carried out 7 days after the inoculation.
# The expected degree of effectiveness in % of the untreated control was calculated using the equation [formula]
# in which x and y denote, respectively, the degree of effectiveness—expressed in % of the untreated control—obtained by the two preparations when used separately. If the actually observed degree of effectiveness of the active compound combination exceeds the value calculated for the expected degree of effectiveness (E) using the abovementioned formula, then there is a superadditive, i.e. synergistic, effect.
# Penicillium custosum = assay: Agar plate test with Penicillium custosum; format: cell-based; conditions: 100 ppm, inhibition of growth after 6 days
# Experimental: Agar Plate Test With Penicillium custosum
# 39 parts by weight of potato dextrose agar
# 20 parts by weight of agar
# are dissolved in 1,000 ml of distilled water and the solution is kept in an autoclave at 121° C. for 20 minutes.
# 50 parts by weight of acetone
# 950 parts by weight of water
# Ratio of the amount of solvent to nutrient medium: 1:100
# To produce a suitable preparation of active compound, 1 part by weight of active compound is mixed with the stated amount of solvent.
# The concentrate is thoroughly mixed, in the stated ratio, with the liquid nutrient medium, and the mixture is poured into Petri dishes.
# When the nutrient medium has cooled and solidified, the plates are inoculated with the following microorganisms and are incubated at about 21° C.: Penicillium custosum.
# Evaluation is carried out after 6 days, the inhibition of growth being used as a measure of the action of the products.
# [3] = test system: Erysiphe graminis f.sp. hordei; assay: Erysiphe test (barley)/protective; format: in vivo; conditions: protective, 125 g/ha, 7 days after inoculation
# Experimental: Erysiphe Test (Barley)/Protective
# as §3, §4
# After the spray coating has dried on, the plants are dusted with spores of Erysiphe graminis f.sp. hordei.
# as §5, §6
# Leptosphaeria nodorum = Leptosphaeria nodorum test (wheat)/protective; format: in vivo; conditions: protective, 125 g/ha, 10 days after inoculation
# Experimental: Leptosphaeria nodorum Test (Wheat)/Protective
# as §3, §4
# After the spray coating has dried on, the plants are sprayed with a spore suspension of Leptosphaeria nodorum. The plants remain for 48 hours in an incubation cabin at 20° C. and 100% relative atmospheric humidity.
# The plants are placed in a greenhouse at a temperature of about 15° C. and a relative atmospheric humidity of about 80%.
# Evaluation is effected 10 days after the inoculation.
smiles,measurement,setting,value
"CCCCc1c(C)nc(NCC)nc1O [Ethirimol, ethirimol]",Degree of effectiveness in % of the untreated control,Drechslera graminea; 100 mg/kg of seed,8%
N#Cc1c[nH]cc1-c1cccc2c1OC(F)(F)O2 [Fludioxonil],Degree of effectiveness in % of the untreated control,Botrytis cinerea; 1 ppm,5%
"CNC(=O)/C(=N/OC)c1ccccc1COc1cc(C)ccc1C [(N), (E)-α-(methoxyimono)-N-methyl-2-(2,5-dimethyl-phenoxy-methyl)-benzacetamide]",Degree of effectiveness in % of the untreated control,Botrytis cinerea; 12.5 ppm,64%
"Cc1ccc2nc3sc(=O)sc3nc2c1 [Quinomethionate, quinomethionate]",Degree of effectiveness in % of the untreated control,Botrytis cinerea; 50 ppm,0%
same,Degree of effectiveness in % of the untreated control,[1],9%
"Cc1ccc(C(C)NC(=O)C(NC(=O)OC(C)C)C(C)C)cc1 (stereo not drawn) [(O), 1-methylethyl [2-methyl-1-[[[1-(4-methylphenyl)ethyl]amino]carbonyl]propyl]-carbamate]",Degree of effectiveness in % of the untreated control,Botrytis cinerea; 200 ppm,19%
"N#Cc1c[nH]cc1-c1cccc(Cl)c1Cl [Fenpiclonil, fenpiclonil]",Degree of effectiveness in % of the untreated control,Fusarium nivale; 25 mg/kg of seed,6%
same,Degree of effectiveness in % of the untreated control,Drechslera graminea; 50 mg/kg of seed,41%
"CCCN(CC)CC1COC2(CCC(C(C)(C)C)CC2)O1 (stereo not drawn) [(L), 8-(,1,1-dimethylethyl)-N-ethyl-N-propyl-1,4-dioxaspiro[4,5]decane-2-methaneamine]",Degree of effectiveness in % of the untreated control,Botrytis cinerea; 200 ppm,0%
same,Degree of effectiveness in % of the untreated control,[2]; 10 g/ha,66%
CC1(C(=O)Nc2ccc(O)c(Cl)c2Cl)CCCCC1 [(I)],Degree of effectiveness in % of the untreated control,Botrytis cinerea; 5 ppm,29%
same,Degree of effectiveness in % of the untreated control,Penicillium custosum,24%
same,Degree of effectiveness in % of the untreated control,[3],18%
same,Degree of effectiveness in % of the untreated control,[1],25%
same,Degree of effectiveness in % of the untreated control,Leptosphaeria nodorum,57%
same,Degree of effectiveness in % of the untreated control,[2]; 20 g/ha,25%
same,Degree of effectiveness in % of the untreated control,Fusarium nivale; 25 mg/kg of seed,0%
same,Degree of effectiveness in % of the untreated control,Fusarium nivale; 100 mg/kg of seed,22%
same,Degree of effectiveness in % of the untreated control,Drechslera graminea; 50 mg/kg of seed,41%
same,Degree of effectiveness in % of the untreated control,Drechslera graminea; 100 mg/kg of seed,43%
"CNC(=O)/C(=N/OC)c1ccccc1Oc1ccccc1 [(M), (E)-α-(methoxyimino)-N-methyl-2-phenoxy-benzacetamide]",Degree of effectiveness in % of the untreated control,Botrytis cinerea; 25 ppm,28%
CC(=O)O.CC(=O)O.CC(=O)O.NC(N)=NCCCCCCCCNCCCCCCCCN=C(N)N [Iminoctadine triacetate],Degree of effectiveness in % of the untreated control,[3],27%
"CC(Cc1ccc(C(C)(C)C)cc1)CN1CCCCC1 (stereo not drawn) [Fenpropidin, fenpropidin]",Degree of effectiveness in % of the untreated control,Botrytis cinerea; 50 ppm,0%
"O=c1c2cc(F)ccc2nc(-n2cncn2)n1-c1ccc(Cl)cc1Cl [Fluquinconazole, fluquinconazole]",Degree of effectiveness in % of the untreated control,Botrytis cinerea; 25 ppm,29%
"Cc1cc(C2CC2)nc(Nc2ccccc2)n1 [Ciprodinyl, cyprodinyl]",Degree of effectiveness in % of the untreated control,Botrytis cinerea; 5 ppm,5%
"Fc1ccc(C2(Cn3cncn3)OC2c2ccccc2Cl)cc1 (stereo not drawn) [Epoxiconazole, epoxiconazole]",Degree of effectiveness in % of the untreated control,Leptosphaeria nodorum,57%
O=S([O-])CO.[Na+] [Sodium hydroxymethyl sulphinate],Degree of effectiveness in % of the untreated control,Botrytis cinerea; 200 ppm,32%
